According to US20100144733A1, “Compounds, compositions and methods comprising heteroaromatic derivatives” (Institute for OneWorld Health, priority 2008, published 2010):

These compounds were tested against T1, CHO-CFTR cell line (Homo sapiens, UniProt P13569) (assay: CHO-CFTR assay (FLIPR assay, same conditions as the T84 assay)). Conditions: imidazole and triazole-containing compounds.
T1 construct: expressed in transfected cells; host or cells: CHO (CHO-CFTR cell line)
Format: cell-based

T1 sequence (P13569 whole entry): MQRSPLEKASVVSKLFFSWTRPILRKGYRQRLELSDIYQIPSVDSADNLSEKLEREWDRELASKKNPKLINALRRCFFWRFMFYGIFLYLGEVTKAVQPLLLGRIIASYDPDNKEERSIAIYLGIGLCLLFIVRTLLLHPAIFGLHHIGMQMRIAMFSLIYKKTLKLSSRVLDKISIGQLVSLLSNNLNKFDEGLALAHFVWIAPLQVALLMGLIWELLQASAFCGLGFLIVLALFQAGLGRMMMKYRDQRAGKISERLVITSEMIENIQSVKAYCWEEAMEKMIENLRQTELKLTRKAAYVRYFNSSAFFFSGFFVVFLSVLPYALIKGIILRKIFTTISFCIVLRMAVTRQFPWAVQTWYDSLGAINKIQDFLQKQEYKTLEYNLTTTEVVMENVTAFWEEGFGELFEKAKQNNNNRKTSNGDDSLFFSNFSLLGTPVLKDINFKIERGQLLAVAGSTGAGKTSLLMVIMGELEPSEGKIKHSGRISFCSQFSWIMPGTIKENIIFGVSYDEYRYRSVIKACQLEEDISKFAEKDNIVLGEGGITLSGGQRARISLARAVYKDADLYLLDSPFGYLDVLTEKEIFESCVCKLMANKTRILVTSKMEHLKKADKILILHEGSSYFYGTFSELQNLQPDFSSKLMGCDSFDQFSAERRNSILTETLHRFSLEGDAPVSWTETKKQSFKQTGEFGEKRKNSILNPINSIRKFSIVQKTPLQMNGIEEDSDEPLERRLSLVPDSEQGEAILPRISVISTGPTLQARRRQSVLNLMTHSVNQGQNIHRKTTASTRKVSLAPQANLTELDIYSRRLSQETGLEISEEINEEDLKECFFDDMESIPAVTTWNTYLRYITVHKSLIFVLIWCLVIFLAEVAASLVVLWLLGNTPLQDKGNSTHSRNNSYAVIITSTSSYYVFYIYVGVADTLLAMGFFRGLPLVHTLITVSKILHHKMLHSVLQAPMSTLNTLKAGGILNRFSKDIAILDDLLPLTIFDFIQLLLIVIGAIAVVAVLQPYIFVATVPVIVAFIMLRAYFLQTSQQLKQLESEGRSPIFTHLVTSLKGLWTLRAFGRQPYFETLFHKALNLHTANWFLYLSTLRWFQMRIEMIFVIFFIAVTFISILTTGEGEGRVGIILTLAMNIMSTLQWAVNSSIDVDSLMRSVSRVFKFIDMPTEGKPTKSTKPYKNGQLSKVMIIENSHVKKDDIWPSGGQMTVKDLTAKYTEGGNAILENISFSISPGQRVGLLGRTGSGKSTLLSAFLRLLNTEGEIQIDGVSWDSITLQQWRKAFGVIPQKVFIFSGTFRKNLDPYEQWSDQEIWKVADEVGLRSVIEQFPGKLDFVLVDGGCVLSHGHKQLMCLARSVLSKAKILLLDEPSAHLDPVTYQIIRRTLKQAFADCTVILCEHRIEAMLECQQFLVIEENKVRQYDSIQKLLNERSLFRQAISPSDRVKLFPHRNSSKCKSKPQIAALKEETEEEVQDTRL

`CN(Cc1ccc(C(C)(C)C)cc1)C(=O)c1ncn(-c2cc(Cl)c(O)c(Cl)c2)n1` [1i, N-(4-tert-butylbenzyl)-1-(3,5-dichloro-4-hydroxyphenyl)-N-methyl-1H-1,2,4-triazole-3-carboxamide] and `CN(C)c1cccc(Oc2ccc(CNC(=O)c3ncn(-c4cc(Cl)c(O)c(Cl)c4)n3)cc2)c1` [64i, 1-(3,5-dichloro-4-hydroxyphenyl)-N-(4-(3-(dimethylamino)phenoxy)benzyl)-1H-1,2,4-triazole-3-carboxamide] are within 1.5-fold of each other in IC50: 5.38 µM for the first, 4.81 µM for the second.

`O=C(NC(c1ccccc1)c1ccccc1)c1ncn(-c2cc(Cl)c(O)c(Cl)c2)n1` [2i, N-benzhydryl-1-(3,5-dichloro-4-hydroxyphenyl)-1H-1,2,4-triazole-3-carboxamide] and `O=C(NCc1ccc(Oc2cc(C(F)(F)F)cc(C(F)(F)F)c2)cc1)c1ncn(-c2cc(Cl)c(O)c(Cl)c2)n1` [62i, N-(4-(3,5-bis(trifluoromethyl)phenoxy)benzyl)-1-(3,5-dichloro-4-hydroxyphenyl)-1H-1,2,4-triazole-3-carboxamide] are within 1.5-fold of each other in IC50: 6.45 µM for the first, 8.76 µM for the second.

Each compound was assayed against T2, CFTR (Homo sapiens, UniProt P13569) (assay: T84 assay (FLIPR membrane potential dye, forskolin/IBMX-stimulated CFTR channel activity)). Conditions: imidazole and triazole-containing compounds (Tables 13, 14, 14′), read-out: IC50 (μM) (T84 assay).
T2 construct: endogenous in cells; host or cells: T84 human colonic cells (ECACC)
T2 sequence (P13569 whole entry): as above
Format: cell-based
In short: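 Fluorescence from a membrane potential dye in T84 monolayers (HBSS with 10 mM Hepes) is followed each second for 150 s. Cells are exposed to test compound during the 45 min dye loading, then challenged with forskolin (10 μM) and IBMX (100 μM) to open CFTR. Inhibitors suppress the depolarization-driven fluorescence increase.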

`CN(Cc1ccc(C(C)(C)C)cc1)C(=O)c1ncn(-c2cc(Cl)c(O)c(Cl)c2)n1` [1i, N-(4-tert-butylbenzyl)-1-(3,5-dichloro-4-hydroxyphenyl)-N-methyl-1H-1,2,4-triazole-3-carboxamide] and `O=C(NC(c1ccccc1)c1ccccc1)c1ncn(-c2cc(Cl)c(O)c(Cl)c2)n1` [2i, N-benzhydryl-1-(3,5-dichloro-4-hydroxyphenyl)-1H-1,2,4-triazole-3-carboxamide] are within 1.5-fold of each other in IC50: 4.26 µM for the first, 4.88 µM for the second.

Same assay, conditions: oxadiazole-containing compounds (a series), average of at least 2 runs unless annotated n = 1, read-out: IC50

`CN(Cc1cccc(-c2ncccn2)c1)C(=O)c1nc(-c2cc(Cl)c(O)c(Cl)c2)no1` [176a, 3-(3,5-dichloro-4-hydroxyphenyl)-N-methyl-N-(3-(pyrimidin-2-yl)benzyl)-1,2,4-oxadiazole-5-carboxamide] and `CN(Cc1ccc(-c2ncccn2)cc1)C(=O)c1nc(-c2cc(Cl)c(O)c(Cl)c2)no1` [189a, 3-(3,5-dichloro-4-hydroxyphenyl)-N-methyl-N-(4-(pyrimidin-2-yl)benzyl)-1,2,4-oxadiazole-5-carboxamide] are within 1.5-fold of each other in IC50: 24.6 µM for the first, 16.9 µM for the second.

Compared with `CN(Cc1cccc(-c2cncnc2)c1)C(=O)c1nc(-c2cc(Cl)c(O)c(Cl)c2)no1` [177a, 3-(3,5-dichloro-4-hydroxyphenyl)-N-methyl-N-(3-(pyrimidin-5-yl)benzyl)-1,2,4-oxadiazole-5-carboxamide], `CN(Cc1ccc(-c2cncnc2)cc1)C(=O)c1nc(-c2cc(Cl)c(O)c(Cl)c2)no1` [188a, 3-(3,5-dichloro-4-hydroxyphenyl)-N-methyl-N-(4-(pyrimidin-5-yl)benzyl)-1,2,4-oxadiazole-5-carboxamide] is 2.8-fold lower in IC50: 16.3 µM for the first, 5.81 µM for the second.

Compared with `CN(Cc1cccc(Oc2ccccn2)c1)C(=O)c1nc(-c2cc(Cl)c(O)c(Cl)c2)no1` [178a, 3-(3,5-dichloro-4-hydroxyphenyl)-N-methyl-N-(3-(pyridin-2-yloxy)benzyl)-1,2,4-oxadiazole-5-carboxamide], `CN(Cc1cccc(-c2cccnc2)c1)C(=O)c1nc(-c2cc(Cl)c(O)c(Cl)c2)no1` [185a, 3-(3,5-dichloro-4-hydroxyphenyl)-N-methyl-N-(3-(pyridin-3-yl)benzyl)-1,2,4-oxadiazole-5-carboxamide] is 1.6-fold lower in IC50: 7.94 µM for the first, 5.11 µM for the second.

`O=C(NCc1ccc(Oc2cccc(Cl)c2)cc1)c1nc(-c2cc(Cl)c(O)c(Cl)c2)no1` [179a, N-(4-(3-chlorophenoxy)benzyl)-3-(3,5-dichloro-4-hydroxyphenyl)-1,2,4-oxadiazole-5-carboxamide] and `O=C(NCc1ccc(Oc2cccc(F)c2)cc1)c1nc(-c2cc(Cl)c(O)c(Cl)c2)no1` [194a, 3-(3,5-dichloro-4-hydroxyphenyl)-N-(4-(3-fluorophenoxy)benzyl)-1,2,4-oxadiazole-5-carboxamide] are within 1.5-fold of each other in IC50: 10.7 µM for the first, 10 µM for the second.

`CC(C)Oc1ccc(Oc2ccc(CNC(=O)c3nc(-c4cc(Cl)c(O)c(Cl)c4)no3)cc2)cc1Cl` [180a, N-(4-(3-chloro-4-isopropoxyphenoxy)benzyl)-3-(3,5-dichloro-4-hydroxyphenyl)-1,2,4-oxadiazole-5-carboxamide] and `COc1ccc(Oc2ccc(CNC(=O)c3nc(-c4cc(Cl)c(O)c(Cl)c4)no3)cc2)cc1Cl` [195a, N-(4-(3-chloro-4-methoxyphenoxy)benzyl)-3-(3,5-dichloro-4-hydroxyphenyl)-1,2,4-oxadiazole-5-carboxamide] are within 1.5-fold of each other in IC50: 10.3 µM for the first, 8.92 µM for the second.

`O=C(NCc1ccc(Oc2ccc(OC(F)(F)F)cc2)cc1)c1nc(-c2cc(Cl)c(O)c(Cl)c2)no1` [181a, 3-(3,5-dichloro-4-hydroxyphenyl)-N-(4-(4-(trifluoromethoxy)phenoxy)benzyl)-1,2,4-oxadiazole-5-carboxamide] and `O=C(NCc1ccc(Oc2ccc(C(F)(F)F)cc2)cc1)c1nc(-c2cc(Cl)c(O)c(Cl)c2)no1` [198a, 3-(3,5-dichloro-4-hydroxyphenyl)-N-(4-(4-(trifluoromethyl)phenoxy)benzyl)-1,2,4-oxadiazole-5-carboxamide] are within 1.5-fold of each other in IC50: 18.7 µM for the first, 19.6 µM for the second.

`O=C(NCc1ccc(Oc2ccc(Br)cc2)cc1)c1nc(-c2cc(Cl)c(O)c(Cl)c2)no1` [182a, N-(4-(4-bromophenoxy)benzyl)-3-(3,5-dichloro-4-hydroxyphenyl)-1,2,4-oxadiazole-5-carboxamide] and `CN(C)c1ccc(Oc2ccc(CNC(=O)c3nc(-c4cc(Cl)c(O)c(Cl)c4)no3)cc2)cc1` [197a, 3-(3,5-dichloro-4-hydroxyphenyl)-N-(4-(4-(dimethylamino)phenoxy)benzyl)-1,2,4-oxadiazole-5-carboxamide] are within 1.5-fold of each other in IC50: 8.03 µM for the first, 7.76 µM for the second.

`COc1ccc(Oc2ccc(CNC(=O)c3nc(-c4cc(Cl)c(O)c(Cl)c4)no3)cc2)cc1F` [183a, 3-(3,5-dichloro-4-hydroxyphenyl)-N-(4-(3-fluoro-4-methoxyphenoxy)benzyl)-1,2,4-oxadiazole-5-carboxamide] and `COc1cc(Oc2ccc(CNC(=O)c3nc(-c4cc(Cl)c(O)c(Cl)c4)no3)cc2)ccc1F` [191a, 3-(3,5-dichloro-4-hydroxyphenyl)-N-(4-(4-fluoro-3-methoxyphenoxy)benzyl)-1,2,4-oxadiazole-5-carboxamide] are within 1.5-fold of each other in IC50: 11.7 µM for the first, 8.85 µM for the second.

`CCOc1ccc(Oc2ccc(CNC(=O)c3nc(-c4cc(Cl)c(O)c(Cl)c4)no3)cc2)cc1Cl` [184a, N-(4-(3-chloro-4-ethoxyphenoxy)benzyl)-3-(3,5-dichloro-4-hydroxyphenyl)-1,2,4-oxadiazole-5-carboxamide] and `Cc1ccc(Oc2ccc(CNC(=O)c3nc(-c4cc(Cl)c(O)c(Cl)c4)no3)cc2)cc1Cl` [193a, N-(4-(3-chloro-4-methylphenoxy)benzyl)-3-(3,5-dichloro-4-hydroxyphenyl)-1,2,4-oxadiazole-5-carboxamide] are the same in IC50: 13.6 µM for the first, 13.6 µM for the second.

First: CN(Cc1ccc(-c2ccccn2)cc1)C(=O)c1nc(-c2cc(Cl)c(O)c(Cl)c2)no1 [186a, 3-(3,5-dichloro-4-hydroxyphenyl)-N-methyl-N-(4-(pyridin-2-yl)benzyl)-1,2,4-oxadiazole-5-carboxamide]
Second: CN(Cc1ccc(N2CCOCC2)cc1)C(=O)c1nc(-c2cc(Cl)c(O)c(Cl)c2)no1 [187a, 3-(3,5-dichloro-4-hydroxyphenyl)-N-methyl-N-(4-morpholinobenzyl)-1,2,4-oxadiazole-5-carboxamide]
The IC50 of the first is 4.3-fold lower: 5.66 µM for the first, 24.4 µM for the second. The first is the more potent here.

`O=C(NCc1ccc(Oc2cccc(OC(F)(F)F)c2)cc1)c1nc(-c2cc(Cl)c(O)c(Cl)c2)no1` [190a, 3-(3,5-dichloro-4-hydroxyphenyl)-N-(4-(3-(trifluoromethoxy)phenoxy)benzyl)-1,2,4-oxadiazole-5-carboxamide] and `O=C(NCc1ccc(Oc2ccc(F)c(C(F)(F)F)c2)cc1)c1nc(-c2cc(Cl)c(O)c(Cl)c2)no1` [200a, 3-(3,5-Dichloro-4-hydroxyphenyl)-N-(4-(4-fluoro-3-(trifluoromethyl)phenoxy)benzyl)-1,2,4-oxadiazole-5-carboxamide] are within 1.5-fold of each other in IC50: 11 µM for the first, 13.2 µM for the second.

`CC(C)(C)c1ccc(Oc2ccc(CNC(=O)c3nc(-c4cc(Cl)c(O)c(Cl)c4)no3)cc2)cc1` [192a, N-(4-(4-tert-butylphenoxy)benzyl)-3-(3,5-dichloro-4-hydroxyphenyl)-1,2,4-oxadiazole-5-carboxamide] and `CN(C)c1cccc(Oc2ccc(CNC(=O)c3nc(-c4cc(Cl)c(O)c(Cl)c4)no3)cc2)c1` [199a, 3-(3,5-dichloro-4-hydroxyphenyl)-N-(4-(3-(dimethylamino)phenoxy)benzyl)-1,2,4-oxadiazole-5-carboxamide] are within 1.5-fold of each other in IC50: 17.6 µM for the first, 12.2 µM for the second.

`O=C(NCc1ccc(Oc2cc(Cl)cc(Cl)c2)cc1)c1nc(-c2cc(Cl)c(O)c(Cl)c2)no1` [196a, 3-(3,5-dichloro-4-hydroxyphenyl)-N-(4-(3,5-dichlorophenoxy)benzyl)-1,2,4-oxadiazole-5-carboxamide] and `O=C(NCc1ccc(Oc2cc(F)cc(Br)c2)cc1)c1nc(-c2cc(Cl)c(O)c(Cl)c2)no1` [201a, N-(4-(3-bromo-5-fluorophenoxy)benzyl)-3-(3,5-dichloro-4-hydroxyphenyl)-1,2,4-oxadiazole-5-carboxamide] are within 1.5-fold of each other in IC50: 16.2 µM for the first, 17.9 µM for the second.

First: O=C(NCc1ccc(Oc2ccc(Cl)c(C(F)(F)F)c2)cc1)c1nc(-c2cc(Cl)c(O)c(Cl)c2)no1 [202a, N-(4-(4-chloro-3-(trifluoromethyl)phenoxy)benzyl)-3-(3,5-dichloro-4-hydroxyphenyl)-1,2,4-oxadiazole-5-carboxamide]
Second: O=C(c1nc(-c2cc(Cl)c(O)c(Cl)c2)no1)N1CCC(Cc2ccccc2)CC1 [204a, (4-benzylpiperidin-1-yl)(3-(3,5-dichloro-4-hydroxyphenyl)-1,2,4-oxadiazol-5-yl)methanone]
The IC50 of the first is 2.6-fold higher: 23.3 µM for the first, 8.99 µM for the second.

`O=C(c1nc(-c2cc(Br)c(O)c(Br)c2)no1)N1CCC(C(O)(c2ccccc2)c2ccccc2)CC1` [203a, (3-(3,5-dibromo-4-hydroxyphenyl)-1,2,4-oxadiazol-5-yl)(4-(hydroxydiphenylmethyl)piperidin-1-yl)methanone] and `CC(C)(C)ONC(=O)COc1c(Br)cc(-c2noc(C(=O)N3CCC(Cc4ccccc4)CC3)n2)cc1Br` [205a, 2-(4-(5-(4-benzylpiperidine-1-carbonyl)-1,2,4-oxadiazol-3-yl)-2,6-dibromophenoxy)-N-tert-butoxyacetamide] are within 1.5-fold of each other in IC50: 25.9 µM for the first, 23.1 µM for the second.
